Data: patent US20250197407A1 (Jazz Pharmaceuticals Ireland Limited, priority 2022, published 2025)

Target: SOS1/KRAS WT (Homo sapiens (Human), UniProt Q07889)
Test: SOS1/KRAS WT HTRF binding assay (FRET-based protein-protein interaction)
Conditions: inhibition of His6-SOS1 (aa564-1049, 40 nM) binding to GST-KRAS-WT (aa1-188, 40 nM); at least two independent replicates; read-out: SOS1/KRAS WT HTRF Binding assay pIC50 (converted)
Source text: The capacity of compounds to inhibit SOS1 binding to KRAS-WT (wild-type) was quantified using a FRET-based protein-protein interaction assay. The assay is based on the transfer of energy between two fluorophores, a donor and an acceptor, when in close proximity. In this instance, the donor is a Europium-conjugated α-GST antibody that binds to GST-tagged KRAS-WT, and the acceptor is an XL665-conjugated α-His 6 antibody that binds to His 6-tagged SOS1. Binding of SOS1 to KRAS-WT results in an increased fluorescent signal at emission wavelength of 665 nm which can be detected on the EnVision plate reader. Compounds that inhibit binding will reduce the 665 nm signal emitted. Recombinant KRAS-WT protein (40 nM; Human KRAS, aa1-188 recombinant protein with N-terminal GST-tag) and SOS1 protein (40 nM; Human SOS1 exchange domain, aa564-1049 with N-terminal 6His-tag) were mixed together in assay buffer (5 mM HEPES pH7.3, 150 mM NaCl, 10 mM EDTA, 5 mM MgCl2, 0.05% BSA, 0.0025% NP-40, 1 mM DTT and 100 mM KF) and incubated at room temperature with a dose response of compound in a 384-well low volume white plate and a final volume of 5 ul. After a 60 minute incubation, 5 ul of 4 nM anti-GST-Eu(K) (Cisbio, France) combined with 20 nM anti-6His-XL665 (Cisbio, France), diluted in assay buffer, was added to the plate. Following a further 4 hr incubation at room temperature, time-resolved fluorescence was measured on the EnVision plate reader. DMSO (0.05%) and 10 μM reference compound were used to generate the Max and Min assay signals, respectively. Data was analysed using a four-parameter logistic model to calculate IC50 values, with at least two independent replicates performed for each compound.
Data was analyzed using a four-parameter logistic model to calculate IC50 values, with at least two independent replicates performed for each compound.

SOS1/KRAS WT, sequence (Q07889 564-1049): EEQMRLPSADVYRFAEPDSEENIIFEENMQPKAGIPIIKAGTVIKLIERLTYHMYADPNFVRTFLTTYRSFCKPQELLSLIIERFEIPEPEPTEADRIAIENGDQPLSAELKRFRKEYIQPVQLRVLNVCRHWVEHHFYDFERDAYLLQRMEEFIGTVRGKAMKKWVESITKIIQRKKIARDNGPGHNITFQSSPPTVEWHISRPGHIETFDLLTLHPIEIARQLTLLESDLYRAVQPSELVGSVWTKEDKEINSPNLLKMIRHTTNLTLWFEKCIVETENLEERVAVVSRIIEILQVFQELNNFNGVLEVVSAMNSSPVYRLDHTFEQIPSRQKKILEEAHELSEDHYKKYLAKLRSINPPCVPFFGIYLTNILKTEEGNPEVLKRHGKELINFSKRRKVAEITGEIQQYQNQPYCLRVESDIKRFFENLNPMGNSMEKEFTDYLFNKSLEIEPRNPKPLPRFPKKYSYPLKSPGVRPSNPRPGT

SMILES	IC50 [nM]
Cc1nnc(N[C@H](C)c2cccc(C(F)F)c2F)c2cc3c(cc12)OC(C)(C)C(=O)N3C [Compound 30, 2,2,4,9-tetramethyl-6-[[(1R)-1-[3-(difluoromethyl)-2-fluoro-phenyl]ethyl]amino]pyridazino[4,5-g][1,4]benzoxazin-3-one]	14.8
Cc1nnc(N[C@H](C)c2cccc(C(F)F)c2F)c2cc3c(cc12)n(C)c(=O)n3C [Compound 31, 1,3,8-trimethyl-5-[[(1R)-1-[3-(difluoromethyl)-2-fluoro-phenyl]ethyl]amino]imidazo[4,5-g]phthalazin-2-one]	9.55
Cc1nnc(N[C@H](C)c2cccc(C(F)(F)F)c2)c2cc3c(cc12)C(C)(C)C(=O)N3C [Compound 32, 1,3,3,5-tetramethyl-8-[[(1R)-1-[3-(trifluoromethyl)phenyl]ethyl]amino] pyrrolo[2,3-g]phthalazin-2-one]	10.7
Cc1nnc(N[C@H](C)c2cccc(C(F)(F)C(C)(C)O)c2F)c2cc3c(cc12)n(C)c(=O)n3C1CC1 [Compound 33, 3-cyclopropyl-1,8-dimethyl-5-[[(1R)-1-[3-(1,1-difluoro-2-hydroxy-2-methyl-propyl)-2-fluoro-phenyl]ethyl]amino]imidazo[4,5-g]phthalazin-2-one]	9.77
Cc1nnc(N[C@H](C)c2cccc(C(F)F)c2F)c2cc3c(cc12)n(C)c(=O)n3C1CC1 [Compound 34, 3-cyclopropyl-1,8-dimethyl-5-[[(1R)-1-[3-(difluoromethyl)-2-fluoro-phenyl]ethyl]amino]imidazo[4,5-g]phthalazin-2-one]	9.77
COCCn1c(=O)n(C)c2cc3c(C)nnc(N[C@H](C)c4cccc(C(F)(F)F)c4F)c3cc21 [Compound 35, 3-(2-methoxyethyl)-1,8-dimethyl-5-[[(1R)-1-[2-fluoro-3-(trifluoromethyl)phenyl]ethyl]amino] imidazo[4,5-g]phthalazin-2-one]	10.7
COCC(F)(F)c1cccc([C@@H](C)Nc2nnc(C)c3cc4c(cc23)n(C)c(=O)n4C)c1F [Compound 36, 5-[[(1R)-1-[3-(1,1-difluoro-2-methoxy-ethyl)-2-fluoro-phenyl]ethyl]amino]-1,3,8-trimethyl-imidazo[4,5-g]phthalazin-2-one]	12
COCCn1c(=O)n(C)c2cc3c(C)nnc(N[C@H](C)c4cccc(C(F)(F)CO)c4F)c3cc21 [Compound 37, 3-(2-methoxyethyl)-1,8-dimethyl-5-[[(1R)-1-[3-(1,1-difluoro-2-hydroxy-ethyl)-2-fluoro-phenyl]ethyl]amino]imidazo[4,5-g]phthalazin-2-one]	10.5
Cc1nnc(N[C@H](C)c2cccc(C(F)(F)F)c2F)c2cc3c(cc12)n(C)c(=O)n3C(C)C [Compound 38, 3-isopropyl-1,8-dimethyl-5-[[(1R)-1-[2-fluoro-3-(trifluoromethyl)phenyl]ethyl]amino] imidazo[4,5-g]phthalazin-2-one]	7.59
Cc1c(C#N)cccc1[C@@H](C)Nc1nnc(C)c2cc3c(cc12)n(C)c(=O)n3C [Compound 39, 2-methyl-3-[(1R)-1-[(1,3,8-trimethyl-2-oxo-imidazo[4,5-g]phthalazin-5-yl)amino]ethyl]benzonitrile]	44.7
Cc1nnc(N[C@H](C)c2cccc(C(F)(F)F)c2F)c2cc3c(cc12)n(C)c(=O)n3C [Compound 40, 1,3,8-trimethyl-5-[[(1R)-1-[2-fluoro-3-(trifluoromethyl)phenyl]ethyl]amino]imidazo[4,5-g]phthalazin-2-one]	8.91
Cc1nnc(N[C@H](C)c2cccc(C(F)(F)CN)c2F)c2cc3c(cc12)n(C)c(=O)n3C [Compound 41, 1,3,8-trimethyl-5-[[(1R)-1-[3-(2-amino-1,1-difluoro-ethyl)-2-fluoro-phenyl]ethyl]amino]imidazo[4,5-g]phthalazin-2-one]	16.2
Cc1nnc(N[C@H](C)c2cccc(C(F)(F)F)c2)c2cc3c(cc12)OCCC(=O)N3C [Compound 42, 5,10-dimethyl-7-[[(1R)-1-[3-(trifluoromethyl)phenyl]ethyl]amino]-2,3-dihydropyridazino[4,5-h][1,5]benzoxazepin-4-one]	34.7
Cc1nnc(N[C@H](C)c2cccc(C(F)F)c2F)c2cc3c(cc12)n(C)c(=O)n3C(C)C [Compound 43, 3-isopropyl-1,8-dimethyl-5-[[(1R)-1-[3-(difluoromethyl)-2-fluoro-phenyl]ethyl]amino]imidazo[4,5-g]phthalazin-2-one]	2.82
Cc1nnc(N[C@H](C)c2cccc(C(F)F)c2F)c2cc3c(cc12)C(C)(C)C(=O)N3C [Compound 44, 1,3,3,5-tetramethyl-8-[[(1R)-1-[3-(difluoromethyl)-2-fluoro-phenyl]ethyl]amino]pyrrolo[2,3-g]phthalazin-2-one]	8.71
Cc1c(C#N)cccc1[C@@H](C)Nc1nnc(C)c2cc3c(cc12)n(C(C)C)c(=O)n3C [Compound 45, 2-methyl-3-[(1R)-1-[(3-isopropyl-1,8-dimethyl-2-oxo-imidazo[4,5-g]phthalazin-5-yl)amino]ethyl]benzonitrile]	9.77
Cc1nnc(N[C@H](C)c2cccc(C(F)(F)C(C)(C)O)c2F)c2cc3c(cc12)C(C)(C)C(=O)N3C [Compound 46, 1,3,3,5-tetramethyl-8-[[(1R)-1-[3-(1,1-difluoro-2-hydroxy-2-methyl-propyl)-2-fluoro-phenyl]ethyl]amino]pyrrolo[2,3-g]phthalazin-2-one]	11
Cc1c(C#N)cccc1[C@@H](C)Nc1nnc(C)c2cc3c(cc12)n(C1CC1)c(=O)n3C [Compound 47, 2-methyl-3-[(1R)-1-[(3-cyclopropyl-1,8-dimethyl-2-oxo-imidazo[4,5-g]phthalazin-5-yl)amino]ethyl]benzonitrile]	13.8
Cc1c(C#N)cccc1[C@@H](C)Nc1nnc(C)c2cc3c(cc12)N(C)C(=O)C3(C)C [Compound 48, 2-methyl-3-[(1R)-1-[(1,3,3,5-tetramethyl-2-oxo-pyrrolo[3,2-g]phthalazin-8-yl)amino]ethyl]benzonitrile]	13.5
Cc1c(C#N)cccc1[C@@H](C)Nc1nnc(C)c2cc3c(cc12)n(C(C)(C)C)c(=O)n3C [Compound 49, 2-methyl-3-[(1R)-1-[(3-tert-butyl-1,8-dimethyl-2-oxo-imidazo[4,5-g]phthalazin-5-yl)amino]ethyl]benzonitrile]	11.2
Cc1nnc(N[C@H](C)c2cccc(C(F)(F)F)c2)c2cc3c(cc12)n(C)c(=O)n3CC(F)F [Compound 50, 3-(2,2-difluoroethyl)-1,8-dimethyl-5-[[(1R)-1-[3-(trifluoromethyl)phenyl]ethyl]amino] imidazo[4,5-g]phthalazin-2-one]	13.2
Cc1nnc(N[C@H](C)c2cc(F)cc(C(F)(F)CO)c2)c2cc3c(cc12)n(C)c(=O)n3C [Compound 51, 5-[[(1R)-1-[3-(1,1-difluoro-2-hydroxy-ethyl)-5-fluoro-phenyl]ethyl]amino]-1,3,8-trimethyl-imidazo[4,5-g]phthalazin-2-one]	23.4
Cc1nnc(N[C@H](C)c2cccc(C(F)(F)F)c2F)c2cc3c(cc12)n(C)c(=O)n3C1CC1 [Compound 52, 3-cyclopropyl-1,8-dimethyl-5-[[(1R)-1-[2-fluoro-3-(trifluoromethyl)phenyl]ethyl]amino] imidazo[4,5-g]phthalazin-2-one]	8.13
